According to patent US5776892A, “Anti-inflammatory peptides” (Curative Health Services, Inc., priority 1994, dated 1998):
No end group written: not given here.

Columns and labels:
neutrophils = assay type: cell-based
Text: In addition, CT-112 (SEQ. ID NO: 1) was not cytotoxic to neutrophils, as determined by viability testing using trypan blue exclusion (FIG. 3).

[1] = system: carrageenan-induced peritonitis; test: Carrageenan-induced peritonitis, inflammatory cell influx in peritoneal lavage; assay type: in vivo, mouse; details: 60 mg/kg/day minipump
Description: Mice (C57BL/6UAF, females, 12 weeks old) were implanted with Alzet mini pumps set to deliver 60 mg CT-112/kg/day. Six days post-implantation, the mice were challenged with an intraperitoneal injection of 0.3 ml of carrageenan in PBS (10 mg/ml). The peritoneal cavity was lavaged with 15 ml of Hank's Balanced Salt Solution (Ca^2+ - and Mg^2+ -free) at 24, 48 and 72 hr post-challenge. The lavage fluid was centrifuged (500 g, 5 min), fixed with LeukoStat fixative and stained with LeukoStat staining solution. The slides were analyzed under a microscope for the different types of inflammatory cells, such as macrophages, lymphocytes and neutrophils. At the 48-hr time point, 5 control mice were also lavaged.

[2] = system: DNCB-induced delayed-type hypersensitivity; test: Delayed-type hypersensitivity to DNCB, ear thickness; assay type: in vivo, mouse
Description: CT-112 (SEQ. ID NO: 1) was tested for its ability to modulate the immune response in a mouse model of delayed hypersensitivity (Filipp et al., 1984, Allergy, 39: 499-507; Diezel et al., 1989 J. Invest. Dermatol. 93:322-326). The mice used in this study were 8-wk old hairless females (Jackson Laboratories). The mice were sensitized to a contact allergen (1-chloro-2,4-dinitrobenzene, DNCB) by painting the dorsothoracic region twice daily for 5 consecutive days with 50 μl of 0.5% DNCB in 75% acetone:25% vegetable oil. The animals were allowed to rest for 24 hr prior to challenge with DNCB. On the sixth day after initiation of the sensitization treatments, the animals were challenged with 50 μl of DNCB solution applied to the left ear. After 24 hrs, the ear thickness was determined and compared to the unchallenged ear.
The treatment groups were as follows:
b) Prednisone (intraperitoneal injection of 25 mg/kg, 2 hr prior to challenge);
d) CT-112 (intraperitoneal injections of 60 mg/kg/injection at 3, 1, and 0.25 hr prior to challenge and 3, 6 and 21 hr post-challenge);
e) DMSO control (topical application of 50 μl at 3, 1 and 0.25 hr prior to challenge; and
f) CT-112 in DMSO (20 mg/ml, topical application of 50 μl at 3, 1, and 0.25 hr prior to challenge and 3, 6 and 21 hr post-challenge).

Salmonella = Salmonella reverse mutation assay; assay type: cell-based; details: 100-5,000 μg/ml, with or without rat liver microsomal enzyme activation
Text: The mutagenic potential of CT-112 (SEQ. ID NO: 1) has been assessed.

[3] = ip 60 mg/kg/injection at 3, 1, 0.25 hr prior and 3, 6, 21 hr post-challenge
[4] = topical 50 μl of 20 mg/ml in DMSO at 3, 1, 0.25 hr prior and 3, 6, 21 hr post-challenge

**Q.** “TTSQVRPR [CT-112, octapeptide derived from platelet factor 4]” was tested. Which “cytotoxicity to neutrophils (trypan blue exclusion)” value (neutrophils) did it give?
**A.** not cytotoxic

**Q.** And the “Absolute Cell Number, Lymphocytes” value ([1]; 24 hr post carrageenan)?
**A.** 16.9 ± 5.9

**Q.** And the “Absolute Cell Number, Macrophages” value ([1]; 24 hr post carrageenan)?
**A.** 19.5 ± 10

**Q.** And the “Absolute Cell Number, Neutrophils” value ([1]; 24 hr post carrageenan)?
**A.** 106 ± 29

**Q.** What about the “Absolute Cell Number, Lymphocytes” value ([1]; 48 hr post carrageenan) of the same sequence?
**A.** 12.5 ± 7.6

**Q.** What about the “Absolute Cell Number, Macrophages” value ([1]; 48 hr post carrageenan) of the same sequence?
**A.** 126 ± 43

**Q.** And the “Absolute Cell Number, Neutrophils” value ([1]; 48 hr post carrageenan)?
**A.** 134 ± 77

**Q.** What about the “Absolute Cell Number, Lymphocytes” value ([1]; 72 hr post carrageenan) of the same sequence?
**A.** 45.1 ± 42

**Q.** What about the “Absolute Cell Number, Macrophages” value ([1]; 72 hr post carrageenan) of the same sequence?
**A.** 255 ± 125

**Q.** What about the “Absolute Cell Number, Neutrophils” value ([1]; 72 hr post carrageenan) of the same sequence?
**A.** 48.4 ± 28

**Q.** And the “% Inhibition of Inflammation” value ([2]; 7-day pump, 60 mg/kg/24 hr)?
**A.** 79.7%

**Q.** And the “Thickness Difference (Left-Right)” value ([2]; 7-day pump, 60 mg/kg/24 hr)?
**A.** 0.00087 ± 0.000398 in

**Q.** What about the “% Inhibition of Inflammation” value [2, 3] of the same sequence?
**A.** 68.4%

**Q.** And the “Thickness Difference (Left-Right)” value [2, 3]?
**A.** 0.00169 ± 0.000643 in

**Q.** And the “% Inhibition of Inflammation” value [2, 4]?
**A.** 18.2%

**Q.** And the “Thickness Difference (Left-Right)” value [2, 4]?
**A.** 0.0035 ± 0.000408 in

**Q.** And the “number of revertants (histidine independent growth)” value (Salmonella)?
**A.** did not cause an increase in the number of revertants
